Experimental data as given in the supplement of paper PMC10627819.

Experiments:
S. aureus DSM 20231 [1] = test: fitness (endpoint OD595 vs no drug) (fraction); higher = more growth
How it was run: (§1)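 Bacterial growth was followed in 384-well plates seeded at OD595 0.01, with 30 µl per well, or 55 µl for S. pneumoniae, in TSB, LB Lennox or CY at 37 °C. OD595 was read every 30 min for 14 h, and each reading had the first reading subtracted as background. Fitness is the background-corrected optical density at entry into stationary phase divided by the robust mean of the no-drug control wells. This ratio is capped at 1.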

S. aureus Newman [2] = test: as above
How it was run: as §1

S. pneumoniae D39V [3] = test: as above
How it was run: as §1

B. subtilis 168 = test: Bliss interaction score (quartile over a dose matrix) (fitness difference); higher = more antagonism (negative = synergy)
How it was run: (§2)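 Combination data were used to infer fitness under each single drug. Fitness is the OD595 at entry into stationary phase divided by the robust mean of the plate's no-drug wells, with a cap of 1. The Bliss score is the observed minus the expected product fitness, summarised by quartiles over technical, biological and donor/recipient replicates.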

S. aureus DSM 20231 [4] = test: as above
How it was run: as §2

S. aureus Newman [5] = test: as above
How it was run: as §2

S. pneumoniae D39V [6] = test: as above
How it was run: as §2
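Wherever Bliss interaction score (quartile over a dose matrix) is given: first quartile when negative (synergy) and third quartile when positive (antagonism).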

CCCCCCCCCC(=O)N[C@@H](Cc1c[nH]c2ccccc12)C(=O)N[C@H](CC(N)=O)C(=O)N[C@@H](CC(=O)O)C(=O)N[C@@H]1C(=O)NCC(=O)N[C@@H](CCCN)C(=O)N[C@@H](CC(=O)O)C(=O)N[C@H](C)C(=O)N[C@@H](CC(=O)O)C(=O)NCC(=O)N[C@H](CO)C(=O)N[C@@H]([C@H](C)CC(=O)O)C(=O)N[C@@H](CC(=O)c2ccccc2N)C(=O)O[C@@H]1C [Daptomycin] + CN[C@H](CC(C)C)C(=O)N[C@H]1C(=O)N[C@@H](CC(N)=O)C(=O)N[C@H]2C(=O)N[C@H]3C(=O)N[C@H](C(=O)N[C@H](C(=O)O)c4cc(O)cc(O)c4-c4cc3ccc4O)[C@H](O)c3ccc(c(Cl)c3)Oc3cc2cc(c3O[C@@H]2O[C@H](CO)[C@@H](O)[C@H](O)[C@H]2O[C@H]2C[C@](C)(N)[C@H](O)[C@H](C)O2)Oc2ccc(cc2Cl)[C@H]1O [Vancomycin]
fitness, S. aureus DSM 20231 [1], one replicate
Conditions | partner 0.1875 µg/mL | partner 0.375 µg/mL | partner 0.75 µg/mL
first compound 0.125 µg/mL | 0.901 | ≥ 1 | ≥ 1
first compound 0.25 µg/mL | 0.853 | ≥ 1 | ≥ 1

Conditions | fitness
S. aureus DSM 20231 [1], first compound 0.5 µg/mL, partner 0.1875 µg/mL | ≥ 1
S. aureus DSM 20231 [1], first compound 0.5 µg/mL, partner 0.375 µg/mL | ≥ 1
S. aureus DSM 20231 [1], first compound 0.5 µg/mL, partner 0.75 µg/mL | ≥ 1
S. aureus DSM 20231 [1], first compound 1 µg/mL, partner 0.1875 µg/mL | ≥ 1
S. aureus DSM 20231 [1], first compound 1 µg/mL, partner 0.375 µg/mL | ≥ 1
S. aureus DSM 20231 [1], first compound 1 µg/mL, partner 0.75 µg/mL | ≥ 1
S. aureus DSM 20231 [1], first compound 2 µg/mL, partner 0.1875 µg/mL | 0.906
S. aureus DSM 20231 [1], first compound 2 µg/mL, partner 0.375 µg/mL | 0.975
S. aureus DSM 20231 [1], first compound 2 µg/mL, partner 0.75 µg/mL | 0.935
S. aureus Newman [2], first compound 0.125 µg/mL, partner 0.1875 µg/mL | ≥ 1
S. aureus Newman [2], first compound 0.125 µg/mL, partner 0.375 µg/mL | ≥ 1
S. aureus Newman [2], first compound 0.125 µg/mL, partner 0.75 µg/mL | 0.973
S. aureus Newman [2], first compound 0.25 µg/mL, partner 0.1875 µg/mL | ≥ 1
S. aureus Newman [2], first compound 0.25 µg/mL, partner 0.375 µg/mL | 0.998
S. aureus Newman [2], first compound 0.25 µg/mL, partner 0.75 µg/mL | 0.985
S. aureus Newman [2], first compound 0.5 µg/mL, partner 0.1875 µg/mL | 0.988
S. aureus Newman [2], first compound 0.5 µg/mL, partner 0.375 µg/mL | ≥ 1
S. aureus Newman [2], first compound 0.5 µg/mL, partner 0.75 µg/mL | 0.952
S. pneumoniae D39V [3], first compound 1 µg/mL, partner 0.03125 µg/mL | 0.921
S. pneumoniae D39V [3], first compound 1 µg/mL, partner 0.0625 µg/mL | 0.841
S. pneumoniae D39V [3], first compound 1 µg/mL, partner 0.25 µg/mL | 0.116
S. pneumoniae D39V [3], first compound 1 µg/mL, partner 0.5 µg/mL | 0.0905
S. pneumoniae D39V [3], first compound 2 µg/mL, partner 0.03125 µg/mL | 0.915
S. pneumoniae D39V [3], first compound 2 µg/mL, partner 0.0625 µg/mL | 0.885
S. pneumoniae D39V [3], first compound 2 µg/mL, partner 0.125 µg/mL | 0.915
S. pneumoniae D39V [3], first compound 2 µg/mL, partner 0.25 µg/mL | 0.103
S. pneumoniae D39V [3], first compound 2 µg/mL, partner 0.5 µg/mL | 0.094
S. pneumoniae D39V [3], first compound 4 µg/mL, partner 0.03125 µg/mL | 0.938
S. pneumoniae D39V [3], first compound 4 µg/mL, partner 0.0625 µg/mL | 0.898
S. pneumoniae D39V [3], first compound 4 µg/mL, partner 0.125 µg/mL | 0.904
S. pneumoniae D39V [3], first compound 4 µg/mL, partner 0.25 µg/mL | 0.184
S. pneumoniae D39V [3], first compound 4 µg/mL, partner 0.5 µg/mL | 0.0719

Conditions | Bliss interaction score
B. subtilis 168 | 0.0914
S. aureus DSM 20231 [4] | 0.05
S. aureus Newman [5] | 0.0383
S. pneumoniae D39V [6] | 0.0724

CCCCCCCCCC(=O)N[C@@H](Cc1c[nH]c2ccccc12)C(=O)N[C@H](CC(N)=O)C(=O)N[C@@H](CC(=O)O)C(=O)N[C@@H]1C(=O)NCC(=O)N[C@@H](CCCN)C(=O)N[C@@H](CC(=O)O)C(=O)N[C@H](C)C(=O)N[C@@H](CC(=O)O)C(=O)NCC(=O)N[C@H](CO)C(=O)N[C@@H]([C@H](C)CC(=O)O)C(=O)N[C@@H](CC(=O)c2ccccc2N)C(=O)O[C@@H]1C [Daptomycin] + Cn1nnc(-c2ccc(-c3ccc(N4C[C@H](CO)OC4=O)cc3F)cn2)n1 [Tedizolid]
fitness, S. aureus DSM 20231 [1], one replicate
Conditions | partner 0.0625 µg/mL | partner 0.125 µg/mL | partner 0.25 µg/mL
first compound 0.125 µg/mL | 0.918 | 0.765 | 0.354
first compound 0.25 µg/mL | 0.894 | 0.762 | 0.375

fitness
Conditions | partner 0.03125 µg/mL | partner 0.0625 µg/mL | partner 0.125 µg/mL | partner 0.25 µg/mL | partner 0.5 µg/mL
S. aureus DSM 20231 [1], first compound 0.5 µg/mL | – | 0.896 | 0.832 | 0.322 | –
S. aureus DSM 20231 [1], first compound 1 µg/mL | – | 0.907 | 0.78 | 0.293 | –
S. aureus DSM 20231 [1], first compound 2 µg/mL | – | 0.896 | 0.677 | 0.389 | –
S. aureus Newman [2], first compound 0.125 µg/mL | – | 0.977 | 0.914 | – | –
S. aureus Newman [2], first compound 0.25 µg/mL | – | 0.97 | 0.879 | – | –
S. aureus Newman [2], first compound 0.5 µg/mL | – | 0.964 | 0.914 | – | –
S. pneumoniae D39V [3], first compound 1 µg/mL | 0.916 | 0.942 | 0.619 | 0.23 | 0.0913
S. pneumoniae D39V [3], first compound 2 µg/mL | 0.917 | 0.905 | 0.625 | 0.245 | 0.0924
S. pneumoniae D39V [3], first compound 4 µg/mL | 0.93 | 0.966 | 0.643 | 0.256 | 0.0875

Conditions | Bliss interaction score
B. subtilis 168 | 0.0472
S. aureus DSM 20231 [4] | 0.0665
S. aureus Newman [5] | 0.0584
S. pneumoniae D39V [6] | -0.141

CCN(CC)CCOC(=O)c1ccc(N)cc1 [Procaine] + CN[C@H](CC(C)C)C(=O)N[C@H]1C(=O)N[C@@H](CC(N)=O)C(=O)N[C@H]2C(=O)N[C@H]3C(=O)N[C@H](C(=O)N[C@H](C(=O)O)c4cc(O)cc(O)c4-c4cc3ccc4O)[C@H](O)c3ccc(c(Cl)c3)Oc3cc2cc(c3O[C@@H]2O[C@H](CO)[C@@H](O)[C@H](O)[C@H]2O[C@H]2C[C@](C)(N)[C@H](O)[C@H](C)O2)Oc2ccc(cc2Cl)[C@H]1O [Vancomycin]
fitness
Conditions | partner 0.03125 µg/mL | partner 0.0625 µg/mL | partner 0.125 µg/mL | partner 0.1875 µg/mL | partner 0.375 µg/mL | partner 0.75 µg/mL
S. aureus DSM 20231 [1], first compound 85.5 µg/mL | – | – | – | 0.969 | 0.999 | 0.953
S. aureus DSM 20231 [1], first compound 171 µg/mL | – | – | – | 0.953 | ≥ 1 | 0.982
S. aureus DSM 20231 [1], first compound 342 µg/mL | – | – | – | 0.883 | 0.983 | ≥ 1
S. aureus Newman [2], first compound 342 µg/mL | – | – | – | 0.962 | 0.999 | 0.98
S. pneumoniae D39V [3], first compound 85.5 µg/mL | ≥ 1 | 0.963 | 0.742 | – | – | –
S. pneumoniae D39V [3], first compound 171 µg/mL | 0.978 | 0.955 | 0.903 | – | – | –
S. pneumoniae D39V [3], first compound 342 µg/mL | 0.952 | 0.921 | 0.907 | – | – | –

fitness, S. pneumoniae D39V [3], one replicate
Conditions | first compound 85.5 µg/mL | first compound 171 µg/mL | first compound 342 µg/mL
partner 0.25 µg/mL | 0.0963 | 0.383 | 0.674
partner 0.5 µg/mL | 0.0592 | 0.0925 | 0.148

Conditions | Bliss interaction score
B. subtilis 168 | 0.0237
S. aureus DSM 20231 [4] | 0.0492
S. aureus Newman [5] | 0.0558
S. pneumoniae D39V [6] | -0.0761
